≈ marks a conversion by molar mass, not a printed value.
Experiments:
[1] = biological target: T1, Cytochrome P450 3A4 (Homo sapiens, UniProt P08684); experiment: Reversible inhibition of CYP3A4 in human liver microsomes using testosterone as substrate by LC/MS/MS analysis; format: ADME, Microsome
[2] = biological target: T2, Cytochrome P450 1A2 (Homo sapiens, UniProt P05177); experiment: Reversible inhibition of CYP1A2 in human liver microsomes using phenacetin as substrate by LC/MS/MS analysis; format: ADME, Microsome
T2 sequence (P05177 whole entry): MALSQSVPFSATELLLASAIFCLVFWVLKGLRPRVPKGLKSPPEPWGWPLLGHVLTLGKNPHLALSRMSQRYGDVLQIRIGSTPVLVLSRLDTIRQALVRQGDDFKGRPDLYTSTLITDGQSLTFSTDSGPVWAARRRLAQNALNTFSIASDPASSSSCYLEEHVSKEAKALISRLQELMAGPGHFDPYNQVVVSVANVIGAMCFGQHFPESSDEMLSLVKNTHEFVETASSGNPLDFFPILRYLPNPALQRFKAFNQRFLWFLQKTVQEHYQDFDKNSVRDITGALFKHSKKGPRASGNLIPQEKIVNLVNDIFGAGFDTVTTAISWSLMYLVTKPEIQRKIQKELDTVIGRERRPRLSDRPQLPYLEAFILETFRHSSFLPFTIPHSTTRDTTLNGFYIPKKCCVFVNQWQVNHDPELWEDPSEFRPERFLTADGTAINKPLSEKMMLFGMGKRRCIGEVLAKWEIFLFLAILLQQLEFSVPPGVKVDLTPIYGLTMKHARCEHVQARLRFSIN

[3] = biological target: T1, Cytochrome P450 3A4; experiment: Reversible inhibition of CYP3A4 in human liver microsomes using midazolam as substrate by LC/MS/MS analysis; format: ADME, Microsome
[4] = biological target: Tyrosine-protein kinase JAK3 (Homo sapiens, UniProt P52333)
Tyrosine-protein kinase JAK3, sequence (P52333 whole entry): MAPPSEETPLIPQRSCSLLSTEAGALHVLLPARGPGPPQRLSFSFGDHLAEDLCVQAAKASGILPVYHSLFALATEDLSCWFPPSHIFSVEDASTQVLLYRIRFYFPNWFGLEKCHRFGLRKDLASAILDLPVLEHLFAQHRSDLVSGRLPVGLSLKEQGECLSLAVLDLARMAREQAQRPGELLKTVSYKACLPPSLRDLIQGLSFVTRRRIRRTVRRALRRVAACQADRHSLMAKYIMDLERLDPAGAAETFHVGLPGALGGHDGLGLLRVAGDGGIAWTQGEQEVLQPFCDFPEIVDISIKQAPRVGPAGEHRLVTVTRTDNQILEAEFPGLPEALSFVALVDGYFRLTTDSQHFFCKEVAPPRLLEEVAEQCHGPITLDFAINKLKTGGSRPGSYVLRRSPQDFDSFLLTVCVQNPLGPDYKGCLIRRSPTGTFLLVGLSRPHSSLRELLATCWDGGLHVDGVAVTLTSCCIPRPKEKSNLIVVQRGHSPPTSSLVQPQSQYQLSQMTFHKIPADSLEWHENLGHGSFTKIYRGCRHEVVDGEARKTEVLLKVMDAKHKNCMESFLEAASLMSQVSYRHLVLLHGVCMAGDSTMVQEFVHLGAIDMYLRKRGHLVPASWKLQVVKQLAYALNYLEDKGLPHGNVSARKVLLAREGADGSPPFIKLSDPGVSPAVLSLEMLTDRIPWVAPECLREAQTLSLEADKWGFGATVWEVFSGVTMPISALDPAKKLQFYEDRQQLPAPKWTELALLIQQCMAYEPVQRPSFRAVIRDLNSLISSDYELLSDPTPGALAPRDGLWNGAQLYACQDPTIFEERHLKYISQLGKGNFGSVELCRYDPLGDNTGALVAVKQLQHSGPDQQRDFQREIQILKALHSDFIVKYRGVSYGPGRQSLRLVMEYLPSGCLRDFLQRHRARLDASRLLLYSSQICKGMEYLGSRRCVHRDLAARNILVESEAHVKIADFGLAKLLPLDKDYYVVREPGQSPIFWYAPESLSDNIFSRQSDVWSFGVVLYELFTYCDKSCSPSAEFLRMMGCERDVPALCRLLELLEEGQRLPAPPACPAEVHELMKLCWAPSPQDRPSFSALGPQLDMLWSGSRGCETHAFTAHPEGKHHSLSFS

[5] = tested on: Canis familiaris; experiment: Oral bioavailability in Beagle dog at 2 mg/kg by LC/MS/MS analysis; format: ADME, organism-based, Canis lupus familiaris; conditions: in vivo
[6] = Oral bioavailability in Sprague-Dawley rat at 2 mg/kg by LC/MS/MS analysis; format: ADME, organism-based; conditions: Sprague-Dawley, in vivo
[7] = Cmax in Beagle dog at 2 mg/kg, po by LC/MS/MS analysis; format: ADME, organism-based, Canis lupus familiaris; design: dose 2 mg/kg, route oral; conditions: in vivo
[8] = AUC in Beagle dog at 2 mg/kg, po by LC/MS/MS analysis; format: ADME, organism-based, Canis lupus familiaris; design: dose 2 mg/kg, route oral; conditions: plasma
[9] = AUC in Sprague-Dawley rat at 2 mg/kg, po by LC/MS/MS analysis; format: ADME, organism-based; design: dose 2 mg/kg, route oral; conditions: plasma
[10] = Half life in Beagle dog at 0.4 mg/kg, iv by LC/MS/MS analysis; format: ADME, organism-based, Canis lupus familiaris; design: dose 0.4 mg/kg, route intravenous; conditions: in vivo
[11] = Half life in Sprague-Dawley rat at 0.4 mg/kg, iv by LC/MS/MS analysis; format: ADME, organism-based; design: dose 0.4 mg/kg, route intravenous; conditions: in vivo
[12] = Clearance in Beagle dog at 0.4 mg/kg, iv by LC/MS/MS analysis; format: ADME, organism-based, Canis lupus familiaris; design: dose 0.4 mg/kg, route intravenous; conditions: in vivo
[13] = Clearance in Sprague-Dawley rat at 0.4 mg/kg, iv by LC/MS/MS analysis; format: ADME, organism-based; design: dose 0.4 mg/kg, route intravenous; conditions: in vivo
[14] = Metabolic stability in monkey hepatocytes assessed as hepatic clearance; format: ADME, cell-based, Macaca mulatta, Liver, Hepatocyte; conditions: rhesus monkey
[15] = Metabolic stability in dog hepatocytes assessed as hepatic clearance; format: ADME, cell-based, Canis lupus familiaris, Liver, Hepatocyte
[16] = Metabolic stability in rat hepatocytes assessed as hepatic clearance; format: ADME, cell-based, Liver, Hepatocyte
[17] = Plasma protein binding in cynomolgus monkey; format: ADME, cell-free, Macaca fascicularis; conditions: read-out: PPB (converted)
[18] = Plasma protein binding in dog; format: ADME, cell-free, Canis lupus familiaris; conditions: read-out: PPB (converted)
[19] = Apparent permeability across basolateral to apical side in dog MDCK cells; format: ADME, cell-based, Canis lupus familiaris
[20] = Plasma protein binding in rat; format: ADME, cell-free; conditions: read-out: PPB (converted)
[21] = Thermodynamic solubility in aqueous buffer at pH 7.4; format: physicochemical; conditions: read-out: Therm_solubility
[22] = Thermodynamic solubility in aqueous buffer at pH 2; format: physicochemical; conditions: read-out: Therm_solubility
[23] = Hepatic clearance in human liver microsomes by LC/MS/MS analysis; format: ADME, Microsome
[24] = Hepatic clearance in human hepatocytes after 1 to 4 hrs by LC/MS/MS analysis; format: ADME, cell-based, Liver, Hepatocyte
[25] = Apparent permeability across apical to basolateral side in dog MDCK cells; format: ADME, cell-based, Canis lupus familiaris
[26] = Cmax in Sprague-Dawley rat at 2 mg/kg, po by LC/MS/MS analysis; format: ADME, organism-based; design: dose 2 mg/kg, route oral; conditions: in vivo
[27] = biological target: Cytochrome P450 2C19 (Homo sapiens, UniProt P33261)
Cytochrome P450 2C19, sequence (P33261 whole entry): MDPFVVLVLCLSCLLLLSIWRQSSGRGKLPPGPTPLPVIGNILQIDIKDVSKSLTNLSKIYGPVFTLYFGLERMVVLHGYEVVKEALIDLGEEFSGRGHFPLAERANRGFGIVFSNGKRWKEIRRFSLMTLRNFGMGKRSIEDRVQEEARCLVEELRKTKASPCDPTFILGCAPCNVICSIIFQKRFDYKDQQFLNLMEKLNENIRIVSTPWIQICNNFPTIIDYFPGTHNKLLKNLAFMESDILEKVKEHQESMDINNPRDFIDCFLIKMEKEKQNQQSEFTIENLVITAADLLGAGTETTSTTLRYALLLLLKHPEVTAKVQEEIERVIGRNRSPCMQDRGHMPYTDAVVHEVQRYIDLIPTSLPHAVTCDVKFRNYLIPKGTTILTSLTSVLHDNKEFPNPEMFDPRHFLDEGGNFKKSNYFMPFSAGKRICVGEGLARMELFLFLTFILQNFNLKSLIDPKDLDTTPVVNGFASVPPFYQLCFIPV

[28] = biological target: Cytochrome P450 2D6 (Homo sapiens, UniProt P10635)
[29] = biological target: Cytochrome P450 2C9 (Homo sapiens, UniProt P11712)
Cytochrome P450 2C9, sequence (P11712 whole entry): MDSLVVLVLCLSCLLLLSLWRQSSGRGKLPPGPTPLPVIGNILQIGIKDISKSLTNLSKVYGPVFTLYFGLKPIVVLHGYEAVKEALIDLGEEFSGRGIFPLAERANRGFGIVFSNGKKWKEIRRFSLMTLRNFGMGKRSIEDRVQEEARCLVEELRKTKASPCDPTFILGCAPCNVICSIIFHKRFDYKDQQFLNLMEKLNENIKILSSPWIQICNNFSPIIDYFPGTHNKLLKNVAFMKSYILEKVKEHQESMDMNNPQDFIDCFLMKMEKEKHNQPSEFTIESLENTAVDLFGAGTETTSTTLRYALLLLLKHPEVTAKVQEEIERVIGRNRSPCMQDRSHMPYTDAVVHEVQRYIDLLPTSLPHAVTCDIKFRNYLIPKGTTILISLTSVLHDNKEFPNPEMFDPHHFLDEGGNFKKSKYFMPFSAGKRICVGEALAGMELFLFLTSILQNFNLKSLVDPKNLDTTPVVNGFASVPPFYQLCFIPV

[30] = biological target: T3, Non-receptor tyrosine-protein kinase TYK2 (Homo sapiens, UniProt P29597)
T3 sequence (P29597 whole entry): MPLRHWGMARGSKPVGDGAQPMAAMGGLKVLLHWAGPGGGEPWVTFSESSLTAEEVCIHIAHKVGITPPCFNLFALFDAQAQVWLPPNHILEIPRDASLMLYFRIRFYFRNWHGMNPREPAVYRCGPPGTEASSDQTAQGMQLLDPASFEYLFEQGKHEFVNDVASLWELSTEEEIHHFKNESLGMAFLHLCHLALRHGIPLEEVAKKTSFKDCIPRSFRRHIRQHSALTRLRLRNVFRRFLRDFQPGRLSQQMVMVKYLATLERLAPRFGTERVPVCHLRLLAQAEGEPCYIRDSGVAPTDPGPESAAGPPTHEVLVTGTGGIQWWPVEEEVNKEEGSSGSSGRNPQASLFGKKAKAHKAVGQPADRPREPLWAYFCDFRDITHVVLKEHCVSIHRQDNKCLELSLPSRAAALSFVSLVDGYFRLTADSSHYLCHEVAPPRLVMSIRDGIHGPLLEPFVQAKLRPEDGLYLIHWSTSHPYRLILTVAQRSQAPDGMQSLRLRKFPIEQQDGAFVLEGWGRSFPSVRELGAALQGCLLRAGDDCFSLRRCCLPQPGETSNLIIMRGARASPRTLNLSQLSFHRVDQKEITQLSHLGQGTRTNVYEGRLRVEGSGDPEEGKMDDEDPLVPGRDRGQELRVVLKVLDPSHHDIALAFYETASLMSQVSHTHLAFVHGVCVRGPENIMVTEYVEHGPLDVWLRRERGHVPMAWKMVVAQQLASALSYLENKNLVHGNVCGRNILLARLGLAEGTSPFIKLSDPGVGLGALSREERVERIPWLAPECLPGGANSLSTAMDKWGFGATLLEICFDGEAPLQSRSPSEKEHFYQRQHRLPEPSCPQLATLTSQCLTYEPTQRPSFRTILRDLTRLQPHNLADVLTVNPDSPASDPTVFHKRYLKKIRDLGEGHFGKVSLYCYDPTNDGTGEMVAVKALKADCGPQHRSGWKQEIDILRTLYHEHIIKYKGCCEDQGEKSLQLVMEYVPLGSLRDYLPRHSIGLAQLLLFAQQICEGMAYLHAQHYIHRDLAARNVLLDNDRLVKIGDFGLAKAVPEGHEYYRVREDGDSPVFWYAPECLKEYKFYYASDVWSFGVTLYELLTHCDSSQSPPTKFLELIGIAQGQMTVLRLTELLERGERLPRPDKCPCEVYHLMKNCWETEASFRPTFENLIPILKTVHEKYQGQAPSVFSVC

[31] = biological target: T3, Non-receptor tyrosine-protein kinase TYK2; remark: listed apart in the source
[32] = biological target: T4, Tyrosine-protein kinase JAK1 (Homo sapiens, UniProt P23458)
T4 sequence (P23458 whole entry): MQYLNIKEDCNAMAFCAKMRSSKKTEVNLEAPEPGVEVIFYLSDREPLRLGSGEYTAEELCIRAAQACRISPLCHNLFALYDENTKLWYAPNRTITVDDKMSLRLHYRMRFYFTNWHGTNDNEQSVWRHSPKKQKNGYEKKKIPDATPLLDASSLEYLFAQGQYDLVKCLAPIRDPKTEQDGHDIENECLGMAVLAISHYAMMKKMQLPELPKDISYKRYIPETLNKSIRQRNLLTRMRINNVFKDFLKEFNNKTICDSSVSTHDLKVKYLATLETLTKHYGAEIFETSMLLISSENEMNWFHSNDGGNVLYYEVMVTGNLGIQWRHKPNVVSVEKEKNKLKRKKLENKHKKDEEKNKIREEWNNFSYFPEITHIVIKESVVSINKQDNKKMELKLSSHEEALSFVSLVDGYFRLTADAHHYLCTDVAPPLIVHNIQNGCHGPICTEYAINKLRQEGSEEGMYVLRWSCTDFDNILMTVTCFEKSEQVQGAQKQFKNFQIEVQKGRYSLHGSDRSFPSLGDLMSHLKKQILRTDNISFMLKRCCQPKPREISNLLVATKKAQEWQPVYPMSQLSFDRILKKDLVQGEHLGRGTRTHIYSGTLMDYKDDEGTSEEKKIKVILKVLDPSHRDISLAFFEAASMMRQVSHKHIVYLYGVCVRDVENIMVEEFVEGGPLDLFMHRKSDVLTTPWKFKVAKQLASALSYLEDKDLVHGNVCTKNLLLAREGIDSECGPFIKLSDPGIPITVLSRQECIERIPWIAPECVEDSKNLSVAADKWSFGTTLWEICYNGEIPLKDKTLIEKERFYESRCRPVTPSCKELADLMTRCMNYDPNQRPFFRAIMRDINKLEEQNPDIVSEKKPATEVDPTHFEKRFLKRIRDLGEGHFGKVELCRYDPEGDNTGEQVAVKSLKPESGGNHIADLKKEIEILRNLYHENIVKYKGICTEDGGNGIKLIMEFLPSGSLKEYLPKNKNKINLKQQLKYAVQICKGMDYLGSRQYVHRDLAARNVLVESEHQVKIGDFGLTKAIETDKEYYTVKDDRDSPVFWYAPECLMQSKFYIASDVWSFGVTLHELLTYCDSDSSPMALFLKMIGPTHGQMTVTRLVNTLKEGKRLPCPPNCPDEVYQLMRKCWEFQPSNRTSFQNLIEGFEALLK

[33] = biological target: T4, Tyrosine-protein kinase JAK1; remark: listed apart in the source
[34] = biological target: T4, Tyrosine-protein kinase JAK1; remark: listed apart in the source

T1 sequence (P08684 whole entry): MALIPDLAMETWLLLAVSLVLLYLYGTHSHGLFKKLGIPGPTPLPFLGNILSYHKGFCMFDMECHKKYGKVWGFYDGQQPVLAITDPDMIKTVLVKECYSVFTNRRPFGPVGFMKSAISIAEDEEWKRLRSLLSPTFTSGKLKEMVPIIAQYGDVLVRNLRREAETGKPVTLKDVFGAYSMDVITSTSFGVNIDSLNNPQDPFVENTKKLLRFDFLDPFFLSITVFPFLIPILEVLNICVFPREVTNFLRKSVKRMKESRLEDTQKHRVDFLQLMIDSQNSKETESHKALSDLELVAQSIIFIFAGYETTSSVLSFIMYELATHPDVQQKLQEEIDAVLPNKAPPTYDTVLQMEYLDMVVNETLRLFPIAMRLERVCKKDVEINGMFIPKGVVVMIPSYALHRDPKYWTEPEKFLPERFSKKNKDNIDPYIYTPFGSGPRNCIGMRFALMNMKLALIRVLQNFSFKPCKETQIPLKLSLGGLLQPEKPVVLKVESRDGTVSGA

With C[C@@H](O)c1nc2cnc3[nH]ccc3c2n1[C@H]1CC[C@H](CC#N)CC1 the IC50 [1] was greater than 10000 nM, the IC50 [2] was greater than 10000 nM and the IC50 [3] was 8800 nM. It also gave a Ki [4] of 5.9 nM, an F [5] of 183% and a bioavailability [6] of 49%. For the same compound, the Cmax [7] was 2500 nM, the AUC [8] was 11.2 µM·h and the AUC [9] was 1.3 µM·h. It also gave a half-life [10] of 1.8 h, a half-life [11] of 0.5 h and a clearance [12] of 17 mL/min/kg. For the same compound, the clearance [13] was 38 mL/min/kg, the CLhep predicted [14] was 25 mL/min/kg and the CLhep predicted [15] was 12 mL/min/kg. It also gave a CLhep predicted [16] of 15 mL/min/kg, a fraction unbound [17] of 0.3 and a fraction unbound [18] of 0.37. It also gave a Papp B→A [19] of 4.9 ×10⁻⁶ cm/s, a fraction unbound [20] of 0.37 and a solubility thermodynamic [21] of 130 µM (≈ 42 µg/mL). The solubility thermodynamic [22] was greater than 4000 µM, the CLhep predicted [23] was 5.2 mL/min/kg and the CLhep predicted [24] was 6.8 mL/min/kg. For the same compound, the Papp A→B [25] was 3.5 ×10⁻⁶ cm/s, the Cmax [26] was 930 nM and the IC50 [27] was greater than 10000 nM. The IC50 [28] was greater than 10000 nM, the IC50 [29] was greater than 10000 nM and the EC50 [30] was 100 nM. It also gave a Ki [31] of 0.4 nM, an EC50 [32] of 28 nM and an EC50 [33] of 5.7 nM. It also gave a Ki [34] of 0.1 nM.

From ChEMBL document CHEMBL2385026, “Identification of C-2 hydroxyethyl imidazopyrrolopyridines as potent JAK1 inhibitors with favorable physicochemical properties and high selectivity over JAK2” (J Med Chem, 2013)
